Reference: US20150094279A1, “PHARMACEUTICAL COMPOSITION AND METHOD FOR INHIBITING INFLAMMATION” (CHINA MEDICAL UNIVERSITY, priority 2011, published 2015)

Experiments:
[1] = test system: tumor necrosis factor-α (TNF-α); assay: Sandwich ELISA quantification of TNF-α in supernatants of treated fibroblast-like synoviocytes; type: cell-based, human; details: fibroblast-like synoviocytes from patients with degenerative arthritis, 24 hours treatment, supernatant
Experimental: (§1) The fibroblast-like synoviocytes (FLS) from five patients with degenerative arthritis were collected and cultured. First, the joint synovium of the patients were cut into small pieces, suspended in a DMEM (Dulbecco modified eagle's medium) culture medium, and incubated under an environment of 37° C. and 5% CO2 for 3 days. The culture medium contains 1.5 g/L sodium bicarbonate (S6297, Sigma-Aldrich, St Louis, Mo., USA), 1% penicillin-streptomycin-neomycin (P408, Sigma-Aldrich), and 10% fetal bovine serum (04-001-1A, Biological Industries, Grand Island, N.Y., USA).
(§2) Non-attached cells were removed by a phosphate buffered saline solution (PBS), the culture medium was refreshed, and the attached cells were cultured for 2 weeks. After the above steps were repeated 3 to 6 times, the remaining cells were fibroblast-like synoviocytes. The obtained cells were then used for the following test.
(§3) The fibroblast-like synoviocytes obtained form Experiment A were cultured in a serum-free culture medium for 24 hours. Then, the fibroblast-like synoviocytes were separately cultured in the following four culture medium for 24 hours: (1) a DMEM culture medium comprising only 10% fetal bovine serum (as a control group); (2) a DMEM culture medium comprising 10% fetal bovine serum and hyaluronic acid (having an average molecular weight of 600 KDa to 800 KDa); (3) a DMEM culture medium comprising 10% fetal bovine serum and vitamin C, vitamin D, or vitamin E; and (4) a DMEM culture medium comprising 10% fetal bovine serum, hyaluronic acid (having an average molecular weight of 600 KDa to 800 KDa), and vitamin C, vitamin D or vitamin E. The concentrations of hyaluronic acid and vitamin in the above four culture mediums were the same as the above Preparation Example.
(§4) Then, the cells of the aforesaid four groups were collected and centrifuged, and the supernatants were collected for the following analysis.
(§5) In this experiment, the concentrations of two cytokines related to degenerative arthritis in the collected supernatants from Experiment B were determined by using a sandwich binding protein assay kit (or sandwich ELISA kits, purchased from the eBioscience company) based on the standard curves according to the manufacturer's manual to analyze the expression level of these cytokines and determine the inflammation level of the cells. […] Each sample was analyzed twice, and an enzyme-linked immunosorbent assay (ELISA) reader (Sunrise Remote, TECAN) was used to carry out the measurement.

Interleukin-1β (IL-1β) = assay: Sandwich ELISA quantification of IL-1β in supernatants of treated fibroblast-like synoviocytes; type: cell-based, human; details: fibroblast-like synoviocytes from patients with degenerative arthritis, 24 hours treatment, supernatant
Experimental: as §1, §2, §3, §4, §5

[2] = Table 1 (vitamin C experiment), control 95.57
[3] = Table 2 (vitamin D experiment), control 106.78
[4] = Table 3 (vitamin E experiment), control 98.09
[5] = Table 1 (vitamin C experiment), control 91.98
[6] = Table 2 (vitamin D experiment), control 97.47
[7] = Table 3 (vitamin E experiment), control 97.37

Compound	TNF-α average concentration [1, 2]	TNF-α average concentration [1, 3]	TNF-α average concentration [1, 4]	IL-1β average concentration (Interleukin-1β (IL-1β); [5])	IL-1β average concentration (Interleukin-1β (IL-1β); [6])	IL-1β average concentration (Interleukin-1β (IL-1β); [7])
hyaluronic acid	75.64 pg/mL	82.52 pg/mL	79.28 pg/mL	78.79 pg/mL	76.03 pg/mL	78.33 pg/mL
vitamin D	–	79.52 pg/mL	–	–	74.78 pg/mL	–
O=C1O[C@H]([C@@H](O)CO)C(O)=C1O [vitamin C]	75.56 pg/mL	–	–	77.00 pg/mL	–	–
vitamin E	–	–	77.03 pg/mL	–	–	75.57 pg/mL
